Data reported in patent publication US20250281424A1 (New York Blood Center, Inc, priority 2020, published 2025).

Molecular target: T1, human PF4 (Homo sapiens, UniProt P02776)
T1 construct: PF4 is a 70 amino acid, lysine-rich 7.8 kDa platelet-specific protein; made in house; host or cells: Escherichia coli BL21DE3 pLysS (pT7-7) and/or Drosophila S2 cells
T1 sequence (P02776 32-101): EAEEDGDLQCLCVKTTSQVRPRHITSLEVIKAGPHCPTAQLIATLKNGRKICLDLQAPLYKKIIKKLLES
Test: Inhibition of PF4 tetramer formation (BS3 cross-linking, SDS-PAGE)
Assay type: biochemical
Settings: read-out: % inhibition of PF4 tetramer formation at single concentration of inhibitor; for inhibition at 1 µM: 1 μM inhibitor; for inhibition at 3 µM: 3 μM inhibitor (column A)
Outline: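 Monomer, dimer, trimer and tetramer fractions were quantified by densitometry after reducing 12% SDS-PAGE of BS3-cross-linked (0.2 mM, 30 min, room temperature) PF4. Before cross-linking, 10 μg/ml E. coli-expressed human WT PF4 in PBS was exposed to compound for 15 min at 37° C or 60 min at room temperature; controls lacked compound.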

| Structure (SMILES) | inhibition at 1 µM [%] | inhibition at 3 µM [%] |
| --- | --- | --- |
| COCCOCCN(CC(=O)C1C(=O)c2ccc(Oc3ccc4c(c3)C(=O)C(C(=O)CN(CCOCCOC)C(=O)OC(C)(C)C)C4=O)cc2C1=O)C(=O)OC(C)(C)C (stereo not shown) [Example 390, tert-butyl N-{2-[5-({2-[2-(11,11-dimethyl-9-oxo-2,5,10-trioxa-8-azadodecan-8-yl)acetyl]-1,3-dioxo-2,3-dihydro-1H-inden-5-yl}oxy)-1,3-dioxo-2,3-dihydro-1H-inden-2-yl]-2-oxoethyl}-N-[2-(2-methoxyethoxy)ethyl]carbamate] | 27 | 31 |
| COCCOCCN(CC(=O)C1C(=O)c2ccc(C(=O)c3ccc4c(c3)C(=O)C(C(=O)CN(CCOCCOC)C(=O)OC(C)(C)C)C4=O)cc2C1=O)C(=O)OC(C)(C)C (stereo not shown) [Example 391, tert-butyl N-[2-(5-{2-[2-(11,11-dimethyl-9-oxo-2,5,10-trioxa-8-azadodecan-8-yl)acetyl]-1,3-dioxo-2,3-dihydro-1H-indene-5-carbonyl}-1,3-dioxo-2,3-dihydro-1H-inden-2-yl)-2-oxoethyl]-N-[2-(2-methoxyethoxy)ethyl]carbamate] | 1 | 6 |
| COCCOCCN(CC(=O)C1C(=O)c2ccc(S(=O)(=O)c3ccc4c(c3)C(=O)C(C(=O)CN(CCOCCOC)C(=O)OC(C)(C)C)C4=O)cc2C1=O)C(=O)OC(C)(C)C (stereo not shown) [Example 392, tert-butyl N-{2-[5-({2-[2-(11,11-dimethyl-9-oxo-2,5,10-trioxa-8-azadodecan-8-yl)acetyl]-1,3-dioxo-2,3-dihydro-1H-inden-5-yl}sulfonyl)-1,3-dioxo-2,3-dihydro-1H-inden-2-yl]-2-oxoethyl}-N-[2-(2-methoxyethoxy)ethyl]carbamate] | 1 | 1 |
| COCCOCC(=O)C1C(=O)c2ccc(C(=O)c3ccc4c(c3)C(=O)C(C(=O)COCCOC)C4=O)cc2C1=O (stereo not shown) [Example 395, 2-[2-(2-methoxyethoxy)acetyl]-5-{2-[2-(2-methoxyethoxy)acetyl]-1,3-dioxo-2,3-dihydro-1H-indene-5-carbonyl}-2,3-dihydro-1H-indene-1,3-dione] | 2 | 13 |
| COCCOCC(=O)C1C(=O)c2ccc(Oc3ccc4c(c3)C(=O)C(C(=O)COCCOC)C4=O)cc2C1=O (stereo not shown) [Example 396, 2-[2-(2-methoxyethoxy)acetyl]-5-({2-[2-(2-methoxyethoxy)acetyl]-1,3-dioxo-2,3-dihydro-1H-inden-5-yl}oxy)-2,3-dihydro-1H-indene-1,3-dione] | 14 | 17 |

Further lines, results first:

| inhibition at 1 µM [%] | inhibition at 3 µM [%] | Structure (SMILES) |
| --- | --- | --- |
| 1 | 4 | COCCOCCNCC(=O)C1C(=O)c2ccc(C(=O)c3ccc4c(c3)C(=O)C(C(=O)CNCCOCCOC)C4=O)cc2C1=O (stereo not shown) [Example 393, 2-(2-{[2-(2-methoxyethoxy)ethyl]amino}acetyl)-5-[2-(2-{[2-(2-methoxyethoxy)ethyl]amino}acetyl)-1,3-dioxo-2,3-dihydro-1H-indene-5-carbonyl]-2,3-dihydro-1H-indene-1,3-dione] |
| 2 | 5 | COCCOCCNCC(=O)C1C(=O)c2ccc(Oc3ccc4c(c3)C(=O)C(C(=O)CNCCOCCOC)C4=O)cc2C1=O (stereo not shown) [Example 394, 2-(2-{[2-(2-methoxyethoxy)ethyl]amino}acetyl)-5-{[2-(2-{[2-(2-methoxyethoxy)ethyl]amino}acetyl)-1,3-dioxo-2,3-dihydro-1H-inden-5-yl]oxy}-2,3-dihydro-1H-indene-1,3-dione] |
| 2 | 9 | COCCOCCNCC(=O)C1C(=O)c2ccc(S(=O)(=O)c3ccc4c(c3)C(=O)C(C(=O)CNCCOCCOC)C4=O)cc2C1=O (stereo not shown) [Example 397, 2-(2-{[2-(2-methoxyethoxy)ethyl]amino}acetyl)-5-{[2-(2-{[2-(2-methoxyethoxy)ethyl]amino}acetyl)-1,3-dioxo-2,3-dihydro-1H-inden-5-yl]sulfonyl}-2,3-dihydro-1H-indene-1,3-dione] |
